# Data taken from paper PMC9225722, “Synthesis and biological evaluation of thieno[3,2-c]pyrazol-3-amine derivatives as potent glycogen synthase kinase 3β inhibitors for Alzheimer’s disease” (Journal of Enzyme Inhibition and Medicinal Chemistry, 2022).
# Legend:
# GSK-3β = GSK-3β (Homo sapiens, UniProt P49841); experiment: GSK-3β kinase assay (calliper mobility shift assay); assay type: biochemical; details: mean ± SD from two separate experiments; calliper mobility shift assay
# [1] = system: phosphorylation of GSK-3β at Ser9; experiment: Western blot of p-GSK-3β (Ser9) in SH-SY5Y cells; assay type: cell-based, human; details: 2.5 h, control 0.33
# From the text: GSK-3β is activated by phosphorylation at Tyr216 and is inhibited by phosphorylation at Ser9 [48]. As one of the substrates of Akt (protein kinase B), GSK-3 can inhibit Akt[49]. The inhibition of GSK-3β increases the p-Akt expression and activates the PI3K/Akt pathway, and that, in turn, phosphorylates the GSK-3β at the Ser9 site[50]^,[51]. […] As shown in Figure 6(A), LiCl greatly promoted GSK-3β phosphorylation at Ser9 (p-GSK-3β/GAPDH: 0.60 vs 0.33). […] Therefore, in cellular level, compound 16b was confirmed to have a direct effect on GSK-3β.
# (§1) Figure 6. (A) The effect of 16b on phosphorylation of GSK-3β at Ser9; (B) the effect of 16b on β-catenin abundance. Protein expressions were detected by immunoblot analysis with a specific antibody. Values are reported as the mean ± SD of three independent experiments. *p < 0.05, **p < 0.01, ***p < 0.001 vs control.
# SH-SY5Y cells (1 × 10^6) were seeded in 12-well plates (Corning, Los Altos, MA, USA) and incubated with compound 16b or LiCl at the indicated concentrations for 2.5 h at 37 °C in 5% CO2. At the end of incubation, cells were lysed by addition of ice-cold RIPA buffer containing a protease inhibitor cocktail. The protein quantification was determined using a BCA protein assay kit (Jiangsu KeyGEN BioTECH Co., Ltd., Nanjing, China). Cellular lysates were mixed with an equal volume of SDS (sodium dodecyl sulfate) loading buffer (Jiangsu KeyGEN BioTECH Co., Ltd., Nanjing, China) and separated by electrophoresis (Bio-rad Power Supplies Basic, Shanghai, China) in polyacrylamide gel. Proteins were transferred from acrylamide gels to nitrocellulose membranes and blocked in a blocking buffer (PBS, 5% non-fat milk) for 1.5 to 2 h at 20 °C. […] The blots were washed by TBST for 20 min and detected with ECL chemiluminescent reagent (Jiangsu KeyGEN BioTECH Co., Ltd., Nanjing, China) for 3 min. Pixel intensity was quantitated using gel imaging system (SYNGENE G:BOX/iChemi XR5, ISS, San Diego, CA, US) and Gel-Pro32 software (Media Cybernetics, Bethesda, MD, USA). […]
# β-catenin = experiment: Western blot of β-catenin abundance in SH-SY5Y cells; assay type: cell-based, human; details: 2.5 h, control 0.41
# From the text: as §1
# GSK-3β is implicated in the Wnt/β-catenin signalling pathway, which plays an important role in neuronal development. GSK-3β, together with adenomatous polyposis coli (APC), Axin, and casein kinase 1 (CK1), form a ploy-protein complex that regulates the hyperphosphorylation of β-catenin. Phospho-β-catenin is recognised by ubiquitin and degraded by proteasomes. Pharmacological inhibition of GSK-3β leads to the activation and stabilisation of β-catenin, subsequently resulting in the accumulation of β-catenin in cytoplasm. The activation of Wnt/β-catenin signalling pathway can promote synaptic growth, alleviate spatial memory impairment and neurodegeneration in Alzheimer’s models. Moreover, β-catenin also plays a pivotal role in cell adhesion complexes. The combination of β-catenin and N-cadherin elevates cell-to-cell interactions which is prerequisite for neuronal differentiation[61]^,[62]. Therefore, we further evaluated the effect of 16b on β-catenin. In agreement with its GSK-3β inhibitory activity on SH-SY5Y cells, 16b increased β-catenin abundance in a dose-dependent manner. […]
# SH-SY5Y cells (1 × 10^6) were seeded in 12-well plates (Corning, Los Altos, MA, USA) and incubated with compound 16b or LiCl at the indicated concentrations for 2.5 h at 37 °C in 5% CO2. […] The protein quantification was determined using a BCA protein assay kit (Jiangsu KeyGEN BioTECH Co., Ltd., Nanjing, China). […] The blots were washed by TBST for 20 min and detected with ECL chemiluminescent reagent (Jiangsu KeyGEN BioTECH Co., Ltd., Nanjing, China) for 3 min. Pixel intensity was quantitated using gel imaging system (SYNGENE G:BOX/iChemi XR5, ISS, San Diego, CA, US) and Gel-Pro32 software (Media Cybernetics, Bethesda, MD, USA). […]
# [2] = system: tau phosphorylation at Ser396; experiment: Inhibition of Aβ-induced tau hyperphosphorylation (Western blot) in SH-SY5Y cells; assay type: cell-based, human; details: 20 μM Aβ25-35 stimulated (Aβ25-35 alone 0.83)
# Procedure: GSK-3β phosphorylates tau at sites (Ser199, Ser396, and Ser443), and the hyperphosphorylated tau aggregate into NFTs in AD[63]. Inhibition of GSK-3β could reduce tau hyperphosphorylation. Therefore, the cell-based assay examining Aβ-induced tau phosphorylation at Ser396 represents a direct functional assay to measure the cellular activity of GSK-3β inhibitors. To investigate the effect of 16b on tau phosphorylation, Western blot analysis was carried out to check Aβ-induced tau protein hyperphosphorylation at Ser396 in SH-SY5Y cells, using LiCl as the control. […] At the concentration of 5 μM, 10 μM and 20 μM, 16b decreased the phosphorylation tau level to 0.70, 0.52, 0.40, respectively.
# Figure 7. Inhibition of Aβ-induced tau phosphorylation by 16b in SH-SY5Y cells. Values are reported as the mean ± SD of three independent experiments. *p < 0.05, **p < 0.01, ***p < 0.001 vs control.
# SH-SY5Y cells were seeded in 12-well plates until 80% confluence, serum-deprived for 12 h. Cells were pre-incubated with compound 16b or LiCl for 1 h, thereafter stimulated with Aβ25–35 (Sigma) for another 6 h. According to the previously reported method[64]^,[75], the phosphorylated tau was determined.
# GSK-3β, sequence (P49841 whole entry): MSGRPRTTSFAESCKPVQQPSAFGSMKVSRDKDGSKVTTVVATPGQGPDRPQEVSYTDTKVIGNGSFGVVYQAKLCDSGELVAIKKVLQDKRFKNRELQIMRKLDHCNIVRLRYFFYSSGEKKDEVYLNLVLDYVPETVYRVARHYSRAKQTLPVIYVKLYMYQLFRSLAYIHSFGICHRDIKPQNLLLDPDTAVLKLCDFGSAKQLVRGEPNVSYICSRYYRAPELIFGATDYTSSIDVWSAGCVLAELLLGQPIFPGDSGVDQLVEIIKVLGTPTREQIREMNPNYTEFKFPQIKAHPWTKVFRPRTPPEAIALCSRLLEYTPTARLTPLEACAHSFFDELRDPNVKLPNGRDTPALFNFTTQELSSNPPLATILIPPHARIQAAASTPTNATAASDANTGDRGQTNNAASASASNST
compound,measurement,setting,value
"CC(C)C(=O)Nc1n[nH]c2cc(-c3cccnc3)sc12 [Compound 16b, N-(5-(pyridin-3-yl)-1H-thieno[3,2-c]pyrazol-3-yl)isobutyramide]",IC50,GSK-3β,3.1 ± 0.1 nM
same,p-GSK-3β/GAPDH ratio (Ser9),[1]; 10 μM,0.41
same,p-GSK-3β/GAPDH ratio (Ser9),[1]; 20 μM,0.50
same,β-catenin/GADPH ratio,β-catenin; 5 μM,0.54
same,β-catenin/GADPH ratio,β-catenin; 10 μM,0.64
same,β-catenin/GADPH ratio,β-catenin; 20 μM,0.76
same,p-tau/GAPDH ratio (Ser396),[2]; 5 μM,0.70
same,p-tau/GAPDH ratio (Ser396),[2]; 10 μM,0.52
same,p-tau/GAPDH ratio (Ser396),[2]; 20 μM,0.40
